In ChEMBL document CHEMBL5233265, “Recent advances in the design and development of formyl peptide receptor 2 (FPR2/ALX) agonists as pro-resolving agents with diverse therapeutic potential” (Eur J Med Chem, 2021):

Columns and labels:
Mus musculus [1] = assay: Anti-inflammatory activity against BALB/c mouse assessed as suppression ratio of LPS-induced neutrophil infiltration in lung at 3 mg/kg,po measured after 5.5 hrs by Diff-Quick staining based microscopic analysis; type: functional
[2] = target: T1, N-formyl peptide receptor 2 (Homo sapiens, UniProt P25090); assay: Agonist activity at human FPR2 expressed in HEK293 cells assessed as increase in calcium flux incubated for 45 mins by Fluo-4 AM dye based fluorescence assay; type: cell-based
T1 sequence (P25090 whole entry): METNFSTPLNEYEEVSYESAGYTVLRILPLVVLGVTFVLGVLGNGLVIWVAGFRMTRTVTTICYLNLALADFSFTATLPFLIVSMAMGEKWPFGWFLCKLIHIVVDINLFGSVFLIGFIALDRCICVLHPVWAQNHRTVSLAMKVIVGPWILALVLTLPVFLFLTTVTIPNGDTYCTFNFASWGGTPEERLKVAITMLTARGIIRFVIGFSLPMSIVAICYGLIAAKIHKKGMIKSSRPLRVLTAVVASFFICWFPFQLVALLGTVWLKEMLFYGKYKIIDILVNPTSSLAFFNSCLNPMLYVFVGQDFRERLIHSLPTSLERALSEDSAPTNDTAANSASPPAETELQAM

[3] = target: T2, N-formyl peptide receptor 2 (Homo sapiens) (UniProt P25090); assay: Agonist activity at human recombinant FPR2 stably transfected in Flp-In-CHO cells assessed as maximal intracellular calcium mobilization at 10 uM incubated for 1 hr by Fluo-4 AM dye based fluorescence plate reader assay relative to control; type: cell-based
T2 sequence (whole entry): T1 sequence (P25090 whole entry)

[4] = target: T1, N-formyl peptide receptor 2; assay: Agonist activity at human recombinant FPR2 stably transfected in Flp-In-CHO cells assessed as increase in intracellular calcium mobilization incubated for 1 hr by Fluo-4 AM dye based fluorescence plate reader assay; type: cell-based
[5] = target: T3, fMet-Leu-Phe receptor (Homo sapiens) (UniProt P21462); assay: Agonist activity at human recombinant FPR1 stably transfected in Flp-In-CHO cells assessed as ERK1/2 phosphorylation at 10 uM incubated for 1 hr by Alphascreen fluorescence assay relative to control; type: cell-based; details: filed as agonist
T3 sequence (whole entry): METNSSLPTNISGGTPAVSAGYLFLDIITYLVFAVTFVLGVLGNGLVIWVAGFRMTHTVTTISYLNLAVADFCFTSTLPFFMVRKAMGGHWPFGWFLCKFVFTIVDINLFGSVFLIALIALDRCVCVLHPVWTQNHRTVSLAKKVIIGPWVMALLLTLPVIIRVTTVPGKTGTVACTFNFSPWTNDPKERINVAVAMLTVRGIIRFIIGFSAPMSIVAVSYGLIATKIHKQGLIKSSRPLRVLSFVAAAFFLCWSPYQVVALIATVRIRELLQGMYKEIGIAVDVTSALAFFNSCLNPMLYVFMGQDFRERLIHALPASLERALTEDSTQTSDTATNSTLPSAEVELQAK

[6] = target: T3, fMet-Leu-Phe receptor (Homo sapiens); assay: Agonist activity at human recombinant FPR1 stably transfected in Flp-In-CHO cells assessed as maximal intracellular calcium mobilization at 10 uM incubated for 1 hr by Fluo-4 AM dye based fluorescence plate reader assay relative to control; type: cell-based
[7] = target: T2, N-formyl peptide receptor 2 (Homo sapiens); assay: Agonist activity at human recombinant FPR2 stably transfected in Flp-In-CHO cells assessed as ERK1/2 phosphorylation at 10 uM incubated for 1 hr by Alphascreen fluorescence assay relative to control; type: cell-based
fMet-Leu-Phe receptor [8] = target: T4, fMet-Leu-Phe receptor (Homo sapiens, UniProt P21462); assay: Agonist activity at human recombinant FPR1 stably transfected in Flp-In-CHO cells assessed as increase in intracellular calcium mobilization incubated for 1 hr by Fluo-4 AM dye based fluorescence plate reader assay; type: cell-based
T4 sequence (P21462 whole entry): T3 sequence (whole entry)

[9] = target: T1, N-formyl peptide receptor 2; assay: Agonist activity at human recombinant FPR2 stably transfected in Flp-In-CHO cells assessed as ERK1/2 phosphorylation incubated for 1 hr by Alphascreen fluorescence assay; type: cell-based
fMet-Leu-Phe receptor [10] = target: T4, fMet-Leu-Phe receptor; assay: Agonist activity at human recombinant FPR1 stably transfected in Flp-In-CHO cells assessed as ERK1/2 phosphorylation incubated for 1 hr by Alphascreen fluorescence assay; type: cell-based
Mus musculus [11] = assay: Neuroprotective activity against angiotensin II induced cardiac fibrosis mouse model assessed as reduction in fibrosis at 3 mg/kg,po qd measured after 3 weeks; type: functional; design: scale not given: the % may be the effect or the level left
HL-60 = assay: Inhibition of cell migration in human HL-60 cells incubated for 135 mins by transwell assay; type: functional, cell-based; details: HL-60, 2.25 h
Mus musculus [12] = assay: Neuroprotective activity against coronary artery occlusion mouse model assessed as reduction in left ventricular chamber dilatation at 3 mg/kg,po measured after […]; type: functional; design: scale not given: the % may be the effect or the level left
[13] = target: T1, N-formyl peptide receptor 2; assay: Agonist activity at human FPR2 expressed in CHO-A12 cells assessed as cAMP level incubated for 1.5 hr by HTRF assay; type: cell-based
Peritoneal macrophage = assay: Induction of phagocytosis in C57BL6 mouse peritoneal macrophages assessed as increase in FITC signal preincubated with compound for 15 mins followed by zymosan addition and measured after 90 mins by Trypan Blue based FITC analysis
[14] = Agonist activity at rat FPR1 expressed in CHO-A12 cells assessed as cAMP level incubated for 1.5 hr by HTRF assay; type: cell-based
Mus musculus [15] = assay: Neuroprotective activity against DOCA induced cardiac fibrosis mouse model assessed as reduction in left ventricular fibrosis at 1 mg/kg,po qd measured after 3 weeks; type: functional; design: scale not given: the % may be the effect or the level left
[16] = Agonist activity at rat FPR2 expressed in CHO-A12 cells assessed as cAMP level incubated for 1.5 hr by HTRF assay; type: cell-based
Mus musculus [17] = assay: Neuroprotective activity against coronary artery occlusion mouse model assessed as reduction in left ventricular chamber dilatation at 0.3 mg/kg,po measured after […]; type: functional; design: scale not given: the % may be the effect or the level left
[18] = Agonist activity at FPR in human PMNL cells assessed as increase in intracellular calcium mobilization incubated for 30 mins by Fluo-4 AM dye based FLIPR-fluorometeric assay; type: cell-based; details: 0.5 h
PMNL = assay: Agonist activity at FPR in human PMNL cells assessed as maximal intracellular calcium mobilization incubated for 30 mins by Fluo-4 AM dye based FLIPR-fluorometeric assay relative to control; type: cell-based; details: filed as agonist
[19] = target: T3, fMet-Leu-Phe receptor (Homo sapiens); assay: Agonist activity at human FPR1 transfected in HL-60 cells assessed as maximal intracellular calcium flux incubated for 30 mins by Fluo-4 AM dye based FLIPR-fluorometeric assay relative to control; type: cell-based; details: filed as agonist
[20] = target: T2, N-formyl peptide receptor 2 (Homo sapiens); assay: Agonist activity at human FPR2 transfected in HL-60 cells assessed as maximal intracellular calcium flux incubated for 30 mins by Fluo-4 AM dye based FLIPR-fluorometeric assay relative to control; type: cell-based; details: filed as agonist
Mus musculus [21] = assay: Anti-inflammatory activity against BALB/c mouse assessed as suppression ratio of LPS-induced neutrophil infiltration in lung at 1 mg/kg,po measured after 5.5 hrs by Diff-Quick staining based microscopic analysis; type: functional
[22] = target: T1, N-formyl peptide receptor 2; assay: Agonist activity at FPR2 (unknown origin) assessed as increase in calcium flux
fMet-Leu-Phe receptor [23] = target: T4, fMet-Leu-Phe receptor; assay: Agonist activity at human FPR1 transfected in HL-60 cells assessed as increase in intracellular calcium flux incubated for 30 mins by Fluo-4 AM dye based FLIPR-fluorometeric assay; type: cell-based
[24] = target: T1, N-formyl peptide receptor 2; assay: Agonist activity at human FPR2 transfected in HL-60 cells assessed as increase in intracellular calcium flux incubated for 30 mins by Fluo-4 AM dye based FLIPR-fluorometeric assay; type: cell-based
[25] = target: T2, N-formyl peptide receptor 2 (Homo sapiens); assay: Agonist activity at human FPR2 transfected in HL-60 cells assessed as maximal intracellular calcium flux incubated for 30 mins by Fluo-4 AM dye based fluorometer analysis relative to control; type: cell-based; details: filed as agonist
fMet-Leu-Phe receptor [26] = target: T4, fMet-Leu-Phe receptor; assay: Agonist activity at human FPR1 transfected in HL-60 cells assessed as increase in intracellular calcium flux incubated for 30 mins by Fluo-4 AM dye based fluorometer analysis; type: cell-based; details: read-out: EC50
[27] = target: T3, fMet-Leu-Phe receptor (Homo sapiens); assay: Agonist activity at human FPR1 transfected in HL-60 cells assessed as maximal intracellular calcium flux incubated for 30 mins by Fluo-4 AM dye based fluorometer analysis relative to control; type: cell-based; details: filed as agonist
[28] = target: T1, N-formyl peptide receptor 2; assay: Agonist activity at human FPR2 transfected in HL-60 cells assessed as increase in intracellular calcium flux incubated for 30 mins by Fluo-4 AM dye based fluorometer analysis; type: cell-based; details: read-out: EC50
[29] = Agonist activity at FPR in human PMNL cells assessed as increase in intracellular calcium mobilization incubated for 30 mins by Fluo-4 AM dye based fluorometer analysis; type: cell-based; details: 0.5 h

## CCN1C[C@@H](c2ccc(OC)cc2)[C@H](NC(=O)Nc2ccc(F)cc2)C1=O
Mus musculus [1]
  Ratio: 97.4%
[2]
  EC50: 0.13 nM

## COc1cc(F)c([C@@H]2CNC(=O)[C@H]2NC(=O)Nc2ccc(C)cc2)c(F)c1
Mus musculus [1]
  Ratio: 57%
[2]
  EC50: 0.86 nM

## COc1ccc(C[C@H](NC(=O)Nc2ccc(Cl)cc2)c2noc(CCO)n2)cc1
Mus musculus [1]
  Ratio: 94%
[2]
  EC50: 0.17 nM

## COc1cccc(Cc2cc(C)nn(C(C)C(=O)Nc3ccc(Cl)cc3)c2=O)c1 (racemic)
[3]
  Emax: 6%
[4]
  EC50: > 10000 nM
[5]
  Emax: 70%
[6]
  Emax: 22%
[7]; filed as agonist
  Emax: 82%
fMet-Leu-Phe receptor [8]
  EC50: 7940 nM
[9]
  EC50: 1580 nM
fMet-Leu-Phe receptor [10]
  EC50: 1000 nM

## COc1cc(F)c([C@@H]2CNC(=O)[C@H]2NC(=O)Nc2ccccc2)c(F)c1 [BMS-986235]
Mus musculus [11]
  Activity: 89%
HL-60
  IC50: 57 nM
Mus musculus [12]
  Activity: 24%
[13]
  EC50: 1250 nM
Peritoneal macrophage
  EC50: 2 nM
[14]
  EC50: 1.5 nM
Mus musculus [15]
  Activity: 50%
[16]
  EC50: 720 nM
Mus musculus [17]
  Activity: 26%

## N/C(=N\C(=O)CCO)[C@H](Cc1ccc(Cl)cc1)NC(=O)Nc1ccc(Cl)cc1
Mus musculus [1]
  Ratio: 86%

## COc1cccc(Cc2c(C)c(C)nn(CC(=O)Nc3ccc(Br)cc3)c2=O)c1
[18]
  EC50: 19 nM
PMNL
  Emax: 85%
[19]
  Emax: 85%
[20]
  Emax: 80%

## COc1cccc(Cc2cc(C)nn([C@@H](C)C(=O)Nc3ccc(Cl)cc3)c2=O)c1
[3]
  Emax: 4%
[4]
  EC50: > 10000 nM
[5]
  Emax: 78%
[6]
  Emax: 16%
[7]
  Emax: 8%
fMet-Leu-Phe receptor [8]
  EC50: > 10000 nM
[9]
  EC50: > 10000 nM
fMet-Leu-Phe receptor [10]
  EC50: 1260 nM

## COc1ccc(NC(=O)N[C@@H]2/C(=N/OCCO)NC[C@H]2c2c(F)cc(OC)cc2F)cc1
Mus musculus [21]
  Ratio: 96.8%
[2]
  EC50: 0.27 nM

## COc1cc(F)c([C@@H]2CN3CCON=C3[C@H]2NC(=O)Nc2ccc(F)cc2)c(F)c1
[22]
  EC50: 0.02 nM

## COc1cccc(Cc2c(-c3ccccc3)c(C)nn(CC(=O)Nc3ccc(Br)cc3)c2=O)c1
[18]
  EC50: 200 nM
fMet-Leu-Phe receptor [23]
  EC50: Not Active
[24]
  EC50: 150 nM
PMNL
  Emax: 110%
[20]
  Emax: 115%

## COc1ccc(NC(=O)N[C@@H](Cc2ccc(O)cc2)C(=O)NCC2(c3ccccc3)CC2)cc1
[25]
  Emax: 130%
fMet-Leu-Phe receptor [26]
  EC50: 1500 nM
[27]
  Emax: 95%
[28]
  EC50: 2900 nM

## COc1ccc(Cc2c(C)c(C)nn(CC(=O)Nc3ccc(Br)cc3)c2=O)cc1
[18]
  EC50: 270 nM
fMet-Leu-Phe receptor [23]; read-out: EC50
  EC50: 900 nM
[24]; hl-60
  EC50: 13 nM
PMNL
  Emax: 140%
[19]
  Emax: 60%
[20]
  Emax: 95%

## N#Cc1ccc(NC(=O)N[C@@H]2C(=O)NC[C@H]2c2cc3c(cc2F)OCC3)cc1
Mus musculus [21]
  Ratio: 99.2%

## COc1cccc(-c2cc(C#N)c(C)n(CC(=O)Nc3ccc(Br)cc3)c2=O)c1
[29]
  EC50: 390 nM
fMet-Leu-Phe receptor [26]
  EC50: 1600 nM
[28]
  EC50: 120 nM

## COc1ccc(NC(=O)N[C@H](Cc2ccc(O)cc2)C(=O)NCC2(c3ccccc3)CC2)cc1
[25]
  Emax: 90%
fMet-Leu-Phe receptor [26]; hl-60
  EC50: 5100 nM
[27]
  Emax: 55%
[28]; hl-60
  EC50: 410 nM

## O=C(Cn1c(=O)[nH]cc(-c2ccccc2)c1=O)Nc1ccc(Br)cc1
[29]
  EC50: 4500 nM
fMet-Leu-Phe receptor [26]
  EC50: 12500 nM
[28]
  EC50: 8900 nM

## COc1cccc(Cc2cc(C)nn([C@H](C)C(=O)Nc3ccc(Cl)cc3)c2=O)c1
[3]
  Emax: 8%
[4]
  EC50: > 10000 nM
[5]
  Emax: 82%
[6]
  Emax: 38%
[7]; filed as agonist
  Emax: 85%
fMet-Leu-Phe receptor [8]
  EC50: 3980 nM
[9]
  EC50: 1260 nM
fMet-Leu-Phe receptor [10]
  EC50: 794 nM
